Assay results as given in patent US20250073215A1 (priority 2023, published 2025).

Key:
BEAS-2B cells = details: cited from earlier work
cholinergic receptor = details: when interacting with the cholinergic receptor ligand; cited from earlier work
[1] = test system: human bronchial epithelial cells (BEAS-2B cells); details: in vitro; cited from earlier work
[2] = cited from earlier work

For Cc1ccc([C@@H]2CCCN2C)cn1 [(S)-2-Methyl-5-(1-methyl-2-pyrrolidinyl)pyridine], the “effect on CRP expression compared with nicotine” value (BEAS-2B cells; BEAS-2B cells) is given as “greater negative effect on CRP expression than nicotine”, the “effect on tumour development and metastasis compared with nicotine” value (BEAS-2B cells; NF-κB p65, EGFR, MET by immunoblotting and real-time PCR) is given as “greater negative effect on tumour development and metastasis than nicotine” and the “cancer-related proteins (CRPs) with differential expression compared with control group” value (BEAS-2B cells; transcriptome sequencing, BEAS-2B cells) is given as 1208. The antinociceptive effects (cholinergic receptor) was “displays antinociceptive effects”, the “satisfaction of nicotine craving compared with previously used nicotine products” value (100 individuals, twice a day for 60 days, participants' opinion) was “faster” and the addictiveness (conclusion of the study) was “not addictive”. For the same compound, the “sensitivity of BEAS-2B cells (cytotoxicity) compared with nicotine” value [1] was “more sensitive”.

For CN1CCC[C@H]1c1cccnc1 [Nicotine, 3-[(2S)-1-methyl-2-pyrrolidinyl]pyridine], the “lethal dose for humans” value [2] is given as 50 to 100 mg.
